Entries after “also recorded” stand apart in the source; their conditions may differ. Where a SMILES comes first, the peptide text is derived from it. [ ]: non-standard residue; d: D form. The star is where a group is joined. Sta = CC(C)C[C@H](N)[C@@H](O)CC(=O)O; Isovaleryl = CC(C)CC(=O)*

What all share (format): biochemical, human
For assay [1], the system named is serine and/or cysteine proteinases cleaving Y63 and F62 of the β2-microglobulin long chain. Briefly: Inhibition of cleavage of Y63 and F62 on the long chain (I1-Y63) of cleaved β2-microglobulin. Conditions: occurs even at pH 6; EDTA 20 mmol/L. From the text:
Further confirmed non-tryptic cleavage sites on the long chain occur at F62 and then at S61, resulting in three major forms of long chains with calculated molecular weights of 7358.19 Da (I1-Y63), 7195.01 Da (I1-F62) and 7047.83 Da (I1-S61) (see FIG. 25B). […] In addition, three cleavage sites on the long chain have been identified by μLC-MS/MS (F22, N24 and C25), however, the resulting fragments were not detectable by SELDI-TOF-MS.

In assay [2] the test system is protease family responsible for β2-microglobulin cleavage in urine. Briefly: Determination of the protease family responsible for β2-microglobulin cleavage (urine spiked with intact β2-microglobulin and protease inhibitors, SELDI-TOF-MS). The settings on record: urine at pH 5, intact β2-microglobulin 10 mg/L, 37° C.; pepstatin 14.5 μM, Complete-Mini (EDTA-free) 0.2 tablets/mL, EDTA 20 mM. As for the experimental part: These samples were then analysed by SELDI-TOF-MS immediately (column 1) and after 6 hours of incubation at 37° C. (column 2).
One mL of a urine sample from a healthy individual (total protein 110 mg/L, creatinine 18.9 mM, pH 5) and 1 mL of a urine sample from a patient with an acute clinical rejection episode showing the protein peak clusters (total protein 230 mg/L, creatinine 11.6 mM, pH 5) were incubated for 16 hours at 37° C. to degrade existing intact and cleaved β2-m. Four hundred μL of each sample were mixed with sodium acetate pH 5 (final concentration 166 mM) to ensure, stable pH and divided into four portions of 100 μL. Pepstatin (final concentration 14.5 μM), Complete-Mini (EDTA-free) (final concentration 0.2 tablets/mL), EDTA (final concentration 20 mM) or no protease inhibitors were added to each portion. Another 100 μL of each urine sample was brought to pH 6 by adding MES pH 6 (final concentration 166 mM). […] SELDI-TOF-MS analysis was performed immediately and after 1, 2, 4, 6 and 24 hours of incubation at 37° C.

For assay [3], the system named is aspartic proteinase(s) performing initial cleavage of intact urinary β2-microglobulin. Briefly: Inhibition of initial cleavage of intact urinary β2-microglobulin in patient urine at pH 4.5 (SELDI-TOF-MS). The settings on record: patient urine brought to pH 4.5. As for the experimental part: Pepstatin is a well-established inhibitor of aspartic proteinases. […] Different proteinase-inhibitors were added (Pepstatin and Complete Mini EDTA-free, both from Roche, Switzerland).

For `O=C(O)CN(CCN(CC(=O)O)CC(=O)O)CC(=O)O` [EDTA], the “Inhibition of the cleavage of the two amino acids Y63 and F62 on the long chain” value in assay [1] is recorded as “not”. Moreover, the “Inhibition of cleavage of intact β2-microglobulin” value in assay [2] is reported as “not”.
Take `CC(C)CC(=O)N[C@H](C(=O)N[C@H](C(=O)N[C@@H](CC(C)C)[C@@H](O)CC(=O)N[C@@H](C)C(=O)N[C@@H](CC(C)C)[C@@H](O)CC(=O)O)C(C)C)C(C)C` [Pepstatin] (Isovaleryl-VV[Sta]A[Sta]-OH): in assay [1], the “Inhibition of the cleavage of the two amino acids Y63 and F62 on the long chain” value is on record as “not”. Moreover, in assay [2], the “Inhibition of cleavage of intact β2-microglobulin” value is given as “could prevent β2-microglobulin cleavages; also recorded: could be inhibited; also recorded: could inhibit β2-microglobulin cleavage”. Also, in assay [3], the “Detectability of the intact form of β2-microglobulin after 6 to 24 hours in urine spiked with proteinase inhibitor” value is recorded as “still detectable in unchanged intensity; also recorded: can be inhibited”.
